According to ChEMBL document CHEMBL1201862, “PubChem BioAssay data set” (2004):
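48-hour exposure; five concentrations; linearly interpolated endpoints. GI50 = concentration required for 50% inhibition of growth.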 Calls of active or inactive are those of the source. Rule as the data show it: active = GI50 up to about 1.1 µM and inactive = higher.

Legend:
Test in all cases: growth of human tumour cells (NCI), 48 h
786-0 = system: 786-0
COLO 205 = system: COLO 205
HL-60 = system: HL-60
HT-29 = system: HT-29
KM12 = system: KM12
NCI-H23 = system: NCI-H23
NCI-H460 = system: NCI-H460
NCI-H522 = system: NCI-H522
OVCAR-5 = system: OVCAR-5
RPMI-8226 = system: RPMI-8226
SF-295 = system: SF-295
SN12C = system: SN12C
SNB-19 = system: SNB-19
SW-620 = system: SW-620
TK-10 = system: TK-10
U-251 = system: U-251
RXF 393 = system: RXF 393

Measured: GI50

Cc1ccc(C(=O)/C=C/c2ccccc2Cl)cc1
inactive: 786-0 16.2 µM | COLO 205 24.2 µM | HL-60 16.4 µM | HT-29 15.8 µM | KM12 15.7 µM | NCI-H23 19 µM | NCI-H460 14.9 µM | NCI-H522 14 µM | OVCAR-5 17.1 µM | RPMI-8226 15.8 µM | SF-295 19.2 µM | SN12C 20.6 µM | SNB-19 18.4 µM | SW-620 13.6 µM | TK-10 21.1 µM | U-251 14.7 µM

Nc1nc(NC2C=C(CO)C(O)C2O)c([N+](=O)[O-])c(=O)[nH]1 (configuration not stated)
inactive: 786-0 > 100 µM | COLO 205 > 100 µM | HT-29 > 100 µM | KM12 > 100 µM | NCI-H23 > 100 µM | NCI-H460 > 100 µM | NCI-H522 > 100 µM | OVCAR-5 > 100 µM | RXF 393 > 100 µM | SF-295 > 100 µM | SN12C > 100 µM | SNB-19 > 100 µM | SW-620 > 100 µM | TK-10 > 100 µM | U-251 > 100 µM

C/C(CC(=O)CCC(=O)Nc1cccc(C(F)(F)F)c1)=N\NC(=O)NN
inactive: 786-0 > 100 µM | COLO 205 > 100 µM | HL-60 > 100 µM | HT-29 > 100 µM | KM12 > 100 µM | NCI-H23 > 100 µM | NCI-H460 > 100 µM | NCI-H522 > 100 µM | OVCAR-5 > 100 µM | RPMI-8226 > 100 µM | SF-295 > 100 µM | SN12C > 100 µM | SNB-19 > 100 µM | SW-620 > 100 µM | TK-10 > 100 µM | U-251 > 100 µM

CC1(C)CC(C2CC(C)(C)CC(C)(C)[C@H]2O)[C@@H](O)C(C)(C)C1 (some centres not stated)
inactive: 786-0 > 100 µM | COLO 205 > 100 µM | HL-60 > 100 µM | HT-29 > 100 µM | KM12 > 100 µM | NCI-H23 > 100 µM | NCI-H460 > 100 µM | NCI-H522 > 100 µM | RPMI-8226 > 100 µM | SF-295 > 100 µM | SN12C > 100 µM | SNB-19 > 100 µM | SW-620 > 100 µM | TK-10 > 100 µM | U-251 > 100 µM

NC(Cc1ccccc1)C(=O)OCN1C(=O)C2C3C=CC(C2C1=O)C1C2C(=O)N(COC(=O)C(N)Cc4ccccc4)C(=O)C2C31 (configuration not stated)
inactive: 786-0 21.1 µM | COLO 205 17.5 µM | HL-60 23.7 µM | HT-29 33.2 µM | KM12 21.3 µM | NCI-H23 20.2 µM | NCI-H460 14.4 µM | OVCAR-5 47 µM | RPMI-8226 27.2 µM | RXF 393 22.5 µM | SF-295 48 µM | SN12C 22.3 µM | SNB-19 50.1 µM | SW-620 19.5 µM | TK-10 49.3 µM | U-251 20.7 µM

NC1=NN(c2ccccc2)C(=O)C1C(=O)C(=O)Nc1cccc(C(F)(F)F)c1 (configuration not stated)
inactive: 786-0 > 100 µM | COLO 205 > 100 µM | HL-60 89.3 µM | HT-29 > 100 µM | KM12 > 100 µM | NCI-H23 > 100 µM | NCI-H460 > 100 µM | NCI-H522 > 100 µM | OVCAR-5 > 100 µM | RPMI-8226 > 100 µM | SF-295 > 100 µM | SN12C > 100 µM | SNB-19 > 100 µM | SW-620 > 100 µM | TK-10 > 100 µM | U-251 > 100 µM

CC1=C(/C(C)=N/NC(=O)c2ccccc2O)C(C)C(/C(C)=N/NC(=O)c2ccccc2O)=C(C)N1
inactive: 786-0 18.5 µM | HL-60 5.04 µM | HT-29 42.3 µM | KM12 31.4 µM | NCI-H23 13 µM | NCI-H460 18 µM | NCI-H522 17.5 µM | OVCAR-5 24.2 µM | RXF 393 4.73 µM | SN12C 45.1 µM | SNB-19 30.5 µM | SW-620 33.6 µM | TK-10 18.8 µM | U-251 28.7 µM

CCCCCCCCCCNCCSSCc1ccc(Cl)cc1
inactive: 786-0 5.71 µM | COLO 205 2.39 µM | HL-60 1.75 µM | HT-29 1.77 µM | KM12 1.36 µM | NCI-H460 3.25 µM | NCI-H522 1.61 µM | OVCAR-5 1.91 µM | RXF 393 3.3 µM | SF-295 1.91 µM | SN12C 1.91 µM | SNB-19 1.71 µM | SW-620 1.6 µM | TK-10 2.18 µM | U-251 3.27 µM

O=C1[C@H]2ON(c3ccccc3)C(c3ccccc3F)[C@H]2C(=O)N1c1ccc(Cc2ccc(N3C(=O)[C@@H]4ON(c5ccccc5)C(c5ccccc5F)[C@@H]4C3=O)cc2)cc1 (some centres not stated)
inactive: 786-0 > 100 µM | COLO 205 > 100 µM | HL-60 > 100 µM | HT-29 > 100 µM | KM12 > 100 µM | NCI-H23 > 100 µM | NCI-H460 > 100 µM | OVCAR-5 > 100 µM | RPMI-8226 > 100 µM | RXF 393 55.2 µM | SF-295 67.1 µM | SN12C > 100 µM | SW-620 > 100 µM | U-251 > 100 µM
